Experimental data from PubChem BioAssay AID248 (DTP/NCI, 2004).
Values joined by “and” are separate entries in the source; they are usually repeats but may differ in a detail not shown here. Equal entries are not always repeated. Inconclusive results and toxic doses are left out. Rule as the data show it: active = T/C of 150% or more; inactive = T/C below 125%.

Tested on: L1210 leukemia ip in BDF1 mice, survival T/C
Assay: NCI In Vivo Anticancer Drug Screen. Data for tumor model L1210 Leukemia (intraperitoneal) in B6D2F1 (BDF1) mice
Conditions: endpoint: mean survival time, higher = longer survival
How it was run: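 Ratio derived from survival: compound-dosed mice over vehicle-dosed mice, all bearing a transplantable tumor.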

[1] = dose: 100.0 mg/kg/injection, schedule: Q04DX003 (ip), vehicle: saline with Tween-80
[2] = dose: 200.0 mg/kg/injection, schedule: Q04DX003 (ip), vehicle: saline with Tween-80
[3] = dose: 400.0 mg/kg/injection, schedule: Q04DX003 (ip), vehicle: saline with Tween-80
[4] = dose: 100.0 mg/kg/injection, schedule: Q01DX001 (ip), vehicle: carboxymethylcellulose (CMC)
[5] = dose: 200.0 mg/kg/injection, schedule: Q01DX001 (ip), vehicle: carboxymethylcellulose (CMC)
[6] = dose: 400.0 mg/kg/injection, schedule: Q01DX001 (ip), vehicle: carboxymethylcellulose (CMC)
[7] = dose: 100.0 mg/kg/injection, schedule: Q04DX003 (ip), vehicle: Klucel (hydroxypropylcellulose) (HPC)
[8] = dose: 200.0 mg/kg/injection, schedule: Q04DX003 (ip), vehicle: Klucel (hydroxypropylcellulose) (HPC)
[9] = dose: 400.0 mg/kg/injection, schedule: Q04DX003 (ip), vehicle: Klucel (hydroxypropylcellulose) (HPC)
[10] = dose: 100.0 mg/kg/injection, schedule: Q04DX002 (ip), vehicle: Klucel (hydroxypropylcellulose) (HPC)
[11] = dose: 200.0 mg/kg/injection, schedule: Q04DX002 (ip), vehicle: Klucel (hydroxypropylcellulose) (HPC)
[12] = dose: 400.0 mg/kg/injection, schedule: Q04DX002 (ip), vehicle: Klucel (hydroxypropylcellulose) (HPC)

Measured: T/C

NC(N)=N/N=C/c1cccc([N+](=O)[O-])c1
inactive: dose: 15.0 mg/kg/injection, schedule: Q01DX Z (ip), vehicle: carboxymethylcellulose (CMC) 98 % of control | dose: 30.0 mg/kg/injection, schedule: Q01DX Z (ip), vehicle: carboxymethylcellulose (CMC) 93 % of control | dose: 60.0 mg/kg/injection, schedule: Q01DX Z (ip), vehicle: carboxymethylcellulose (CMC) 90 % of control

C(=P(c1ccccc1)(c1ccccc1)c1ccccc1)[P+](c1ccccc1)(c1ccccc1)c1ccccc1.[Br][Cu][Br]
inactive: dose: 1.56 mg/kg/injection, schedule: Q01DX009 (ip), vehicle: Klucel (hydroxypropylcellulose) (HPC) 101 % of control | dose: 3.13 mg/kg/injection, schedule: Q01DX009 (ip), vehicle: Klucel (hydroxypropylcellulose) (HPC) 109 % of control | dose: 6.25 mg/kg/injection, schedule: Q01DX009 (ip), vehicle: Klucel (hydroxypropylcellulose) (HPC) 114 % of control

CNC(Cc1ccc(OCc2ccccc2)cc1)C(=O)NC(CO)CC(C)C (configuration not stated)
inactive: [1] 102 % of control | [2] 96 % of control | [3] 105 % of control

O=C(CCN1CC=C(c2ccccc2)CC1)c1ccc(F)cc1
inactive: dose: 50.0 mg/kg/injection, schedule: Q01DX001 (ip), vehicle: Klucel (hydroxypropylcellulose) (HPC) 93 % of control | dose: 100.0 mg/kg/injection, schedule: Q01DX001 (ip), vehicle: Klucel (hydroxypropylcellulose) (HPC) 97 % of control

CC1(c2cccnc2)OCCO1
inactive: dose: 75.0 mg/kg/injection, schedule: Q01DX001 (ip), vehicle: saline 97 % of control | dose: 150.0 mg/kg/injection, schedule: Q01DX001 (ip), vehicle: saline 98 % of control | dose: 300.0 mg/kg/injection, schedule: Q01DX001 (ip), vehicle: saline 95 % of control

C=CCc1cc(OC)c2c(c1OC)C(=O)c1cccc(OC)c1C2=O
inactive: [1] 97 % of control | [2] 105 % of control

Oc1ccc(Cl)cc1/C=N/NC(=S)Nc1cccc2cccnc12
inactive: dose: 100.0 mg/kg/injection, schedule: Q01DX001 (ip), vehicle: saline 111 % of control | dose: 200.0 mg/kg/injection, schedule: Q01DX001 (ip), vehicle: saline 100 % of control | dose: 400.0 mg/kg/injection, schedule: Q01DX001 (ip), vehicle: saline 91 % of control

COC/C(C)=C/Br
inactive: dose: 100.0 mg/kg/injection, schedule: Q01DX009 (ip), vehicle: acetone 97 % of control | dose: 200.0 mg/kg/injection, schedule: Q01DX009 (ip), vehicle: acetone 94 % of control | dose: 400.0 mg/kg/injection, schedule: Q01DX009 (ip), vehicle: acetone 94 % of control

CCCCN1CCNCC1
inactive: dose: 50.0 mg/kg/injection, schedule: Q01DX009 (ip), vehicle: saline 95 % of control | dose: 100.0 mg/kg/injection, schedule: Q01DX009 (ip), vehicle: saline 97 % of control | dose: 200.0 mg/kg/injection, schedule: Q01DX009 (ip), vehicle: saline 106 % of control

CN(C)Cc1c(O)ccc2ccccc12
inactive: dose: 100.0 mg/kg/injection, schedule: Q04DX002 (ip), vehicle: saline with Tween-80 100 % of control | dose: 200.0 mg/kg/injection, schedule: Q04DX002 (ip), vehicle: saline with Tween-80 90 % of control

O=C(Nc1ccc(F)cc1)Nc1ccc(Nc2ccccc2)cc1
inactive: [4] 91 % of control | dose: 100.0 mg/kg/injection, schedule: Q01DX009 (ip), vehicle: carboxymethylcellulose (CMC) 97 % of control | dose: 100.0 mg/kg/injection, schedule: Q04DX002 (ip), vehicle: carboxymethylcellulose (CMC) 93 % of control and 86 % of control | dose: 100.0 mg/kg/injection, schedule: Q04DX003 (ip), vehicle: carboxymethylcellulose (CMC) 88 % of control | [5] 91 % of control | dose: 200.0 mg/kg/injection, schedule: Q01DX009 (ip), vehicle: carboxymethylcellulose (CMC) 87 % of control | dose: 200.0 mg/kg/injection, schedule: Q04DX002 (ip), vehicle: carboxymethylcellulose (CMC) 98 % of control and 86 % of control | dose: 200.0 mg/kg/injection, schedule: Q04DX003 (ip), vehicle: carboxymethylcellulose (CMC) 93 % of control | [6] 91 % of control | dose: 400.0 mg/kg/injection, schedule: Q01DX009 (ip), vehicle: carboxymethylcellulose (CMC) 92 % of control and 87 % of control | dose: 400.0 mg/kg/injection, schedule: Q04DX002 (ip), vehicle: carboxymethylcellulose (CMC) 88 % of control | dose: 400.0 mg/kg/injection, schedule: Q04DX003 (ip), vehicle: carboxymethylcellulose (CMC) 88 % of control

CCN=C(Nc1ccc(C(=NC)NCC)cc1)c1ccc(C(=NCC)Nc2ccc(C(=NC)NCC)cc2)cc1
inactive: dose: 0.5 mg/kg/injection, schedule: Q01DX Z (ip), vehicle: saline 97 % of control | dose: 0.8 mg/kg/injection, schedule: Q01DX Z (ip), vehicle: saline 97 % of control | dose: 1.2 mg/kg/injection, schedule: Q01DX Z (ip), vehicle: saline 97 % of control | dose: 1.77 mg/kg/injection, schedule: Q01DX Z (ip), vehicle: saline 97 % of control and 89 % of control | dose: 2.66 mg/kg/injection, schedule: Q01DX Z (ip), vehicle: saline 93 % of control | dose: 4.0 mg/kg/injection, schedule: Q01DX Z (ip), vehicle: saline 96 % of control

O=C(CCCCl)NCc1ccccc1[N+](=O)[O-]
inactive: dose: 100.0 mg/kg/injection, schedule: Q01DX009 (ip), vehicle: Klucel (hydroxypropylcellulose) (HPC) 96 % of control | [7] 101 % of control | dose: 200.0 mg/kg/injection, schedule: Q01DX009 (ip), vehicle: Klucel (hydroxypropylcellulose) (HPC) 90 % of control | [8] 93 % of control | dose: 400.0 mg/kg/injection, schedule: Q01DX009 (ip), vehicle: Klucel (hydroxypropylcellulose) (HPC) 91 % of control | [9] 97 % of control

CCCCCCCCCCCCC(=O)N(CCCC)CCCC
inactive: [10] 92 % of control | [11] 96 % of control | [12] 103 % of control

Nc1ccccc1NC(=O)C(F)(F)F
inactive: dose: 50.0 mg/kg/injection, schedule: Q01DX001 (ip), vehicle: carboxymethylcellulose (CMC) 93 % of control | [4] 97 % of control | [5] 98 % of control | [6] 108 % of control

CC(=O)OC1CCC2(C)C(=CCC3C2CCC2(C)C3CC3C(c4ccccc4F)=NN(c4ccccc4)C32C#N)C1 (configuration not stated)
inactive: [10] 106 % of control | [11] 95 % of control | [12] 95 % of control

CC(C)C(NC(=O)OCc1ccccc1)C(=O)OCc1ccc([N+](=O)[O-])cc1 (configuration not stated)
inactive: dose: 100.0 mg/kg/injection, schedule: Q01DX001 (ip), vehicle: other 90 % of control | dose: 200.0 mg/kg/injection, schedule: Q01DX001 (ip), vehicle: other 94 % of control | dose: 400.0 mg/kg/injection, schedule: Q01DX001 (ip), vehicle: other 90 % of control

COc1cccc(/C=C(\S)C(=O)O)c1O
inactive: [4] 86 % of control | [5] 89 % of control | [6] 89 % of control

O=C(O)/C=C/c1ccc([N+](=O)[O-])s1
inactive: [10] 90 % of control | [11] 90 % of control

C1CCC(SSC2CCCC2)C1
inactive: [1] 89 % of control | [2] 92 % of control | [3] 92 % of control

Cc1ccc(CNC2=C(Cl)C(=O)c3ccccc3C2=O)cc1C
inactive: dose: 12.5 mg/kg/injection, schedule: Q04DX002 (ip), vehicle: Klucel (hydroxypropylcellulose) (HPC) 92 % of control | dose: 25.0 mg/kg/injection, schedule: Q04DX002 (ip), vehicle: Klucel (hydroxypropylcellulose) (HPC) 87 % of control

O=C(N/C=C/NC(=O)Nc1ccc([N+](=O)[O-])cc1)Nc1ccc([N+](=O)[O-])cc1
inactive: [7] 100 % of control | [8] 89 % of control | [9] 92 % of control
